Assay [1] concerns Age-Impaired (AI) Long-Evans rats. The assay can be described thus: Morris Water Maze retention trial, levetiracetam in aged-impaired rats. It counts as in vivo, rat. As to the method: The MWM apparatus consists of a large, circular pool (diameter 1.83 m; height, 0.58 m) filled with water (27° C.) that is made opaque through the addition of non-toxic pigment or some other substance. In the typical “hidden platform” version of the test, rats are trained to find a camouflaged white escape platform (height, 34.5 cm) that is positioned in the center of one quadrant of the maze about 1.0 cm below the water surface. This platform can be retracted to the bottom of the tank or raised to its normal position from outside the maze during behavioral testing. The location of the platform remains constant from trial to trial. Because there are no local cues that mark the position of the platform, the rat's ability to locate it efficiently from any starting position at the perimeter of the pool depends on using information surrounding the maze. The maze is surrounded by black curtains to which white patterns are affixed to provide a configuration of spatial cues. A second platform (height 37.5 cm), with its surface painted black is elevated 2 cm above the water surface during cue training to control for factors unrelated to cognition. The behavior of a rat in the pool is recorded by a camera that is suspended 2.5 m above the center of the pool. The camera is connected to a video tracking system (HVS Image Advanced Tracker VP200) and a PC computer running HVS software developed by Richard Baker of HVS Image, Hampton, UK. The MWM protocol is optimized for sensitivity to the effects of aging on cognition and for measures of reliable individual differences within the aged population of out-bred Long-Evans rats (Gallagher et al. Behav. Neurosci. 107:618-626, (1993)). Rats receive three trials per day for 8 consecutive days, using a 60 sec inter-trial interval. On each training trial, the rat is released into the maze from one of four equally spaced starting positions around the perimeter of the pool. […] At the completion of the protocol using the hidden platform, rats are assessed for cue learning using the visible platform. […]

Another assay relates to somatostatin in DG hilus. The assay can be described thus: anti-SOM immunohistochemistry, hilar interneuron counts after chronic levetiracetam. It counts as in vivo, rat. The settings on record: levetiracetam 10 mg/kg/day, osmotic minipumps, four weeks, aged-impaired rats. On the procedure: Under isoflurane anesthesia, memory-impaired aged rats were implanted subcutaneously in the intrascapular region with osmotic mini-pumps (ALZET, Durect Corporation, Cupertino, Calif.) with levetiracetam (10 mg/kg/day) or saline vehicle for four weeks prior to perfusion. Young rats, which served as controls, received either saline vehicle in mini-pumps or no implantation.
At the end of the 4-week treatment period, rats were anesthetized with isoflurane and perfused transcardiacally with 0.1 M phosphate buffer saline, followed by 4% paraformaldehyde in phosphate buffer. Brains were removed and post-fixed in paraformaldehyde overnight. […]
Tissue was labeled with anti-SOM antiserum (Santa Cruz Biotechnology; cat. no. SC7819-P) using an established immunoperoxidase protocol and tissue sections were processed concurrently to minimize inter-replication variability (Haberman et al., 2009). […] The secondary antibody was detected with avidin-biotin complex (ABC Elite; Vector Laboratories Inc., Burlingame, Calif.) and the avidin-biotin complex was visualized with nickel-enhanced diaminobenzadine (Vector Laboratories Inc., Burlingame, Calif.). […]
Interneuron quantification was performed using a Zeiss Axioplan 2 microscope equipped with a motorized stage. […] Neuron counts were analyzed as the total number of hilar interneurons per hippocampal section for each rat.

The next assay relates to aMCI subjects. The assay can be described thus: Benton Visual Retention Test. It counts as in vivo, human. The settings on record: levetiracetam 125 mg twice a day for two weeks. From the text:
Breaks are provided to the subject as needed.

With `CC[C@@H](C(N)=O)N1CCCC1=O` [levetiracetam, (2S)-2-(2-oxopyrrolidin-1-yl)butanamide], in assay [1] (levetiracetam 5 mg/kg/day i.p., retention trial 24 hours after two training days), the “time spent in the target quadrant (performance vs vehicle)” value was “did not significantly improve”. Moreover, the “time spent in the target annulus” value in assay [1] (levetiracetam 10 mg/kg/day i.p., retention trial) was “effectiveness of the 10 mg/kg/day levetiracetam treatment was also seen”. For the same compound, the “time spent in the target quadrant, percentage of total swimming time” value in assay [1] (levetiracetam 10 mg/kg/day i.p., retention trial 24 hours after two training days) is “approximately 35%”. Besides, the “levels of somatostatin in DG hilus (SOM-immunoreactive hilar neurons)” value in the assay with somatostatin in DG hilus is “restores”. Further, the “performance in Benton Visual Retention Test” value in the assay with aMCI subjects is given as “fail to rescue performance”.

These data come from patent US20160030391A1, “METHODS AND COMPOSITIONS FOR IMPROVING COGNITIVE FUNCTION” (THE JOHNS HOPKINS UNIVERSITY, priority 2013, published 2016).
